Results published in PubChem BioAssay AID1197 (NMMLSC, 2008).
Calls of active or inactive are those of the source. How the calls were made is not given here.

Test system: LNCaP cell loss, flow cytometry event count, 4 d
Assay: cytotoxicity in LNCaP prostate cancer cells – cell-based, flow cytometry, event count, cytotoxicity control for prostate cell differentiation activator project, dose response (AID 1197)

Q: `COc1ccc(-c2oc3ncn(CCN4CCOCC4)c(=N)c3c2-c2ccc(OC)cc2)cc1` was tested. Which EC50 did it give?
A: 0.198 µM

Q: Which EC50 does the source give for `CN1CCN(CCCNC(=O)c2cc3c(-c4ccc(Cl)cc4)nn(C)c3s2)CC1` here?
A: 12.6 µM (inactive)

Q: `Cn1nc(-c2ccc(Cl)cc2)c2cc(C(=O)NCCCN3CCOCC3)sc21` was tested. Which EC50 did it give?
A: 14.5 µM (inactive)

Q: Which EC50 does the source give for `COc1ccc(Nc2nc(N)nc(CN3CCC(Cc4ccccc4)CC3)n2)cc1` here?
A: 17 µM (inactive)

Q: Which EC50 does the source give for `Cc1ccc(OCC(O)Cn2c(=N)n(CCN3CCCCC3)c3ccccc32)cc1` (configuration not stated) here?
A: 8.65 µM

Q: Which EC50 does the source give for `COc1ccc(CCN2CCC(Nc3nc4ccccc4n3Cc3ccc(F)cc3)CC2)cc1` here?
A: 3.74 µM

Q: How did the EC50 turn out when `COc1ccccc1N1CCN(Cc2cc(Br)c(O)c3ncccc23)CC1` was run?
A: 0.351 µM
